Reference: the NIST ThermoML archive (doi:10.1016/j.tca.2011.06.020)

Assays:
[1] = xn = mol fraction of the nth substance listed; conditions: 101 kPa, Liquid; for speed of sound: Sing-around technique in a fixed-path interferometer; for mass density: Vibrating tube method
[2] = excess molar enthalpy (molar enthalpy of mixing); xn = mol fraction of the nth substance listed; conditions: 308.15 K, 101 kPa, Liquid, Drop calorimetry

Cc1ccccc1N [2-methylaniline] + C1CCOCC1
[1]
Conditions	mass density, 298.15 K [kg/m3]	mass density, 303.15 K [kg/m3]	mass density, 308.15 K [kg/m3]	speed of sound, 298.15 K [m/s]	speed of sound, 303.15 K [m/s]	speed of sound, 308.15 K [m/s]
x1 = 0.0732	890.691	885.73	880.749	1296.4	1274.1	1252.5
x1 = 0.1342	899.769	894.897	890.021	1318.6	1296.8	1275.8
x1 = 0.1768	905.846	900.991	896.174	1334	1312.5	1292
x1 = 0.2207	911.867	907.057	902.258	1349.8	1328.6	1308.5
x1 = 0.2721	918.66	913.86	909.112	1368.2	1347.1	1327.6
x1 = 0.3328	926.351	921.578	916.872	1389.3	1368.7	1349.5
x1 = 0.3562	929.219	924.445	919.758	1397.3	1376.9	1357.8
x1 = 0.3901	933.275	928.536	923.89	1409	1388.5	1369.8
x1 = 0.4288	937.818	933.094	928.469	1421.8	1401.6	1383.1
x1 = 0.4567	940.995	936.325	931.715	1431	1411.1	1392.3
x1 = 0.5014	945.986	941.37	936.823	1445.5	1425.7	1407.2
x1 = 0.5362	949.788	945.194	940.693	1456.6	1437	1418.2
x1 = 0.5982	956.336	951.867	947.455	1475.7	1456.5	1437.6
x1 = 0.6243	959.04	954.607	950.235	1483.6	1464.7	1445.7
x1 = 0.6644	963.103	958.737	954.427	1495.7	1477	1457.6
x1 = 0.7125	967.87	963.596	959.361	1510.2	1491.3	1471.8
x1 = 0.7703	973.454	969.292	965.131	1527.4	1508.7	1488.6
x1 = 0.8025	976.501	972.384	968.276	1537	1518.1	1497.9
x1 = 1	994.351	990.224	986.069	1602.6	1577.8	1558.4

Cc1ccccc1N [2-methylaniline] + CNC=O
[1]
Conditions	mass density, 298.15 K [kg/m3]	mass density, 303.15 K [kg/m3]	mass density, 308.15 K [kg/m3]	speed of sound, 298.15 K [m/s]	speed of sound, 303.15 K [m/s]	speed of sound, 308.15 K [m/s]
x1 = 0.0656	1000.18	995.882	991.55	1454.3	1438.4	1423.3
x1 = 0.1258	1000.98	996.704	992.418	1472.4	1456.3	1440.9
x1 = 0.1673	1001.39	997.124	992.87	1484.1	1467.8	1452.2
x1 = 0.2127	1001.71	997.464	993.254	1496	1479.7	1463.8
x1 = 0.2466	1001.88	997.65	993.459	1504.4	1488.2	1471.9
x1 = 0.2789	1001.99	997.753	993.588	1512.1	1495.7	1479.4
x1 = 0.3081	1002.03	997.811	993.675	1518.6	1502.3	1485.7
x1 = 0.3356	1002.04	997.839	993.709	1524.4	1508.2	1491.4
x1 = 0.3898	1001.96	997.768	993.664	1535.2	1518.9	1501.9
x1 = 0.4383	1001.79	997.624	993.525	1544	1527.6	1510.4
x1 = 0.4802	1001.56	997.416	993.334	1551.1	1534.6	1517.2
x1 = 0.5269	1001.25	997.104	993.02	1558.2	1541.5	1524.1
x1 = 0.5599	1000.97	996.843	992.76	1562.9	1545.9	1528.5
x1 = 0.6006	1000.59	996.484	992.392	1568.2	1551.1	1533.6
x1 = 0.6519	1000.02	995.935	991.837	1574.4	1556.7	1539.2
x1 = 0.7244	999.105	995.043	990.907	1582.2	1563.4	1546
x1 = 0.7904	998.148	994.083	989.937	1588.2	1568.3	1550.9
x1 = 0.8485	997.204	993.14	988.977	1592.8	1571.9	1554.2
x1 = 1	994.351	990.224	986.069	1602.6	1577.8	1558.4

[2]
Conditions	excess molar enthalpy [kcal/mol]
x1 = 0.0486	-0.0402
x1 = 0.0972	-0.0749
x1 = 0.1358	-0.101
x1 = 0.1888	-0.126
x1 = 0.2267	-0.145
x1 = 0.2786	-0.16
x1 = 0.3432	-0.175
x1 = 0.3972	-0.182
x1 = 0.4209	-0.183
x1 = 0.4811	-0.181
x1 = 0.5306	-0.175
x1 = 0.5822	-0.162
x1 = 0.6225	-0.153
x1 = 0.6788	-0.138
x1 = 0.7121	-0.124
x1 = 0.7826	-0.0967
x1 = 0.8127	-0.0858
x1 = 0.8455	-0.0712

CNC=O [N-methylformamide] + C1CCOCC1
[1]
Conditions	mass density, 298.15 K [kg/m3]	mass density, 303.15 K [kg/m3]	mass density, 308.15 K [kg/m3]	speed of sound, 298.15 K [m/s]	speed of sound, 303.15 K [m/s]	speed of sound, 308.15 K [m/s]
x2 = 0	999.004	994.653	990.302	1432.9	1417.7	1402.5
x2 = 0.0822	984.359	979.949	975.601	1411.8	1396.4	1380.7
x2 = 0.1587	971.886	967.407	963.009	1394	1377.9	1361.7
x2 = 0.2344	960.487	955.945	951.454	1377.9	1361	1344.4
x2 = 0.2633	956.359	951.788	947.263	1372.1	1355	1338.1
x2 = 0.3005	951.208	946.607	942.041	1365	1347.4	1330.3
x2 = 0.3572	943.711	939.057	934.409	1354.5	1336.5	1319.1
x2 = 0.3814	940.623	935.944	931.277	1350.3	1332	1314.5
x2 = 0.4163	936.288	931.584	926.867	1344.4	1325.8	1308
x2 = 0.4334	934.212	929.494	924.763	1341.6	1322.9	1305
x2 = 0.4851	928.124	923.354	918.566	1333.4	1314.3	1296.1
x2 = 0.5122	925.036	920.247	915.428	1329.3	1310	1291.6
x2 = 0.5693	918.752	913.91	909.049	1321	1301.3	1282.6
x2 = 0.6064	914.817	909.949	905.053	1315.9	1296	1277
x2 = 0.6571	909.625	904.722	899.79	1309.1	1289	1269.6
x2 = 0.6988	905.507	900.569	895.605	1303.8	1283.5	1263.7
x2 = 0.7315	902.361	897.401	892.421	1299.8	1279.3	1259.3
x2 = 0.7743	898.361	893.366	888.365	1294.7	1273.9	1253.5
x2 = 0.8468	891.856	886.811	881.763	1286.4	1265.1	1244.1

[2]
Conditions	excess molar enthalpy [kcal/mol]
x2 = 0.0662	0.00815
x2 = 0.1805	0.0293
x2 = 0.2254	0.0372
x2 = 0.2892	0.0493
x2 = 0.3252	0.0564
x2 = 0.3743	0.064
x2 = 0.4016	0.0666
x2 = 0.4724	0.0749
x2 = 0.5114	0.0772
x2 = 0.5562	0.0781
x2 = 0.5923	0.0776
x2 = 0.6242	0.0747
x2 = 0.6675	0.0727
x2 = 0.7153	0.0658
x2 = 0.7576	0.0603
x2 = 0.7901	0.0533
x2 = 0.8152	0.0482
x2 = 0.8676	0.0367
